Measurements reported in US8044211B2 (Chroma Therapeutics Ltd., priority 2006, dated 2011).
Read-outs that look alike come from different tables or passages of the source. Each block holds one compound with its values, some of them ahead of it.

Assays:
THP-1 TNFα release = assay: LPS-stimulation of THP-1 cells, TNF-α by ELISA; assay type: cell-based; settings: IC50 range, LPS 1 μg/ml, 6 hrs, read-out: Inhibitor activity versus THP-1 TNFα release
Procedure: THP-1 cells were plated in 100 μl at a density of 4×10^4 cells/well in V-bottomed 96 well tissue culture treated plates and incubated at 37° C. in 5% CO2 for 16 hrs. 2 hrs after the addition of the inhibitor in […], of tissue culture media, the cells were stimulated with LPS (E. coli strain 005:B5, Sigma) at a final concentration of 1 μg/ml and incubated at 37° C. in 5% CO2 for 6 hrs. TNF-α levels were measured from cell-free supernatants by sandwich ELISA (R&D Systems #QTA00B).

p38 MAP Kinase a = target: T1, p38 MAP Kinase a (Homo sapiens, UniProt Q16539); assay: p38 MAP Kinase activity, radiometric filter-binding assay (Upstate); assay type: biochemical; settings: IC50 range; ATP at or close to Km; read-out: Inhibitor activity versus p38 MAPKa
T1 construct: purchased Upstate (Dundee UK)
T1 sequence (Q16539 whole entry): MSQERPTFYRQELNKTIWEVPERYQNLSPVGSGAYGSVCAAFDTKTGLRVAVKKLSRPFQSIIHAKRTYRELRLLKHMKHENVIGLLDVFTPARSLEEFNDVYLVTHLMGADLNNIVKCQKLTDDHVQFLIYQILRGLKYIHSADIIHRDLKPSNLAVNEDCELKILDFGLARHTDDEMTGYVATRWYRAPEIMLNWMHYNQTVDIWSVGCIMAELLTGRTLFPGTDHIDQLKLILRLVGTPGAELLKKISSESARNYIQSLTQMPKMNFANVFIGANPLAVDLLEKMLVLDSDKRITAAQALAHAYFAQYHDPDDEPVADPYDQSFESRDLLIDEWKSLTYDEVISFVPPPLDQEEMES
How it was run: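 Human p38 MAP kinase α (5-10 mU) with 0.33 mg/mL myelin basic protein, 25 mM Tris pH 7.5, 0.002 mM EGTA, 10 mM Mg acetate and [γ-33P]ATP at or near Km; 40 min at RT. Phosphoric acid stop, P30 filter binding and scintillation counting; IC50 from 9-step ⅓-log dilutions from 10 μM top concentration, duplicates.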

[1] = test system: human whole blood TNFα release; assay: LPS-stimulation of human whole blood, TNF-α by ELISA; assay type: cell-based; settings: IC50 range, LPS 100 ng/ml, 6 hrs, read-out: Inhibitor activity versus human whole blood TNFα release
Procedure: Whole blood was taken by venous puncture using heparinised vacutainers (Becton Dickinson) and diluted in an equal volume of RPMI 1640 tissue culture media (Sigma). 100 μl was plated in V-bottomed 96 well tissue culture treated plates. 2 hrs after the addition of the inhibitor in 100 μl of RPMI 1640 media, the blood was stimulated with LPS (E. coli strain 005:B5, Sigma) at a final concentration of 100 ng/ml and incubated at 37° C. in 5% CO2 for 6 hrs. TNF-α levels were measured from cell-free supernatants by sandwich ELISA (R&D Systems #QTA00B)

SMILES: CC(C)C[C@H](NCCCOc1ccc(-n2c(N)c(C(=O)c3ccc(F)cc3)ccc2=O)cc1)C(=O)OC1CCCC1 [Example 25, Cyclopentyl(S)-2-(3-{4-[6-Amino-5-(4-fluorobenzoyl)-2-oxo-2H-pyridin-1-yl]phenoxy}propylamino)-4-methylpentanoate]
IC50 (THP-1 TNFα release; Homo sapiens, THP-1): 100 to 1000 nM
IC50 (p38 MAP Kinase a): < 100 nM
IC50 [1]: > 1000 nM

SMILES: CC(C)C[C@H](NCCc1ccc(-n2c(N)c(C(=O)c3ccc(F)cc3)ccc2=O)cc1)C(=O)OC(C)(C)C [Example 58, tert-Butyl N-[2-(4-{6-amino-5-[(4-fluorophenyl)carbonyl]-2-oxopyridin-1(2H)-yl}phenyl)ethyl]-L-leucinate]
IC50 (THP-1 TNFα release; Homo sapiens, THP-1): < 100 nM
IC50 (p38 MAP Kinase a): 100 to 1000 nM
IC50 [1]: 100 to 1000 nM

SMILES: CC(C)C[C@H](NCc1ccc(-n2c(N)c(C(=O)c3ccc(F)cc3)ccc2=O)cc1)C(=O)OC1CCCC1 [Example 3, Cyclopentyl(S)-2-{4-[6-Amino-5-(4-fluorobenzoyl)-2-oxo-2H-pyridin-1-yl]benzylamino}-4-methylpentanoate]
IC50 (THP-1 TNFα release; Homo sapiens, THP-1): > 1000 nM
IC50 (p38 MAP Kinase a): 100 to 1000 nM
IC50 [1]: > 1000 nM

SMILES: Nc1c(C(=O)c2ccc(F)cc2F)ccc(=O)n1-c1c(F)cc(OCCCN[C@@H](C(=O)OC2Cc3ccccc3C2)c2ccccc2)cc1F [Example 41, 2,3-dihydro-1H-inden-2-yl (2R)-[(3-{4-[6-amino-5-(2,4-difluorobenzoyl)-2-oxopyridin-1(2H)-yl]-3,5-difluorophenoxy}propyl)amino](phenyl)acetate]
IC50 (THP-1 TNFα release; Homo sapiens, THP-1): < 100 nM
IC50 (p38 MAP Kinase a): 100 to 1000 nM
IC50 [1]: > 1000 nM

SMILES: CC(C)C[C@H](NCCc1ccc(-n2c(N)c(C(=O)c3ccc(F)cc3)ccc2=O)cc1)C(=O)OC1CCCC1 [Example 57, Cyclopentyl N-[2-(4-{6-amino-5-[(4-fluorophenyl)carbonyl]-2-oxopyridin-1(2H)-yl}phenyl)ethyl]-L-leucinate]
IC50 (THP-1 TNFα release; Homo sapiens, THP-1): < 100 nM
IC50 (p38 MAP Kinase a): 100 to 1000 nM
IC50 [1]: 100 to 1000 nM

SMILES: CC(C)(C)OC(=O)[C@@H](NCCCOc1cc(F)c(-n2c(N)c(C(=O)c3ccc(F)cc3F)ccc2=O)c(F)c1)c1ccccc1 [Example 36, tert-Butyl(S)-(3-{4-[6-Amino-5-(2,4-difluorobenzoyl)-2-oxo-2H-pyridin-1-yl]-3,5-difluorophenoxy}propylamino)phenyl acetate]
IC50 (THP-1 TNFα release; Homo sapiens, THP-1): < 100 nM
IC50 (p38 MAP Kinase a): < 100 nM
IC50 [1]: > 1000 nM

SMILES: CC(C)(C)OC(=O)[C@H](Cc1ccccc1)NCCCOc1cc(F)c(-n2c(N)c(C(=O)c3ccc(F)cc3F)ccc2=O)c(F)c1 [Example 37, tert-Butyl(S)-2-(3-{4-[6-Amino-5-(2,4-difluorobenzoyl)-2-oxo-2H-pyridin-1-yl]-3,5-difluorophenoxy}-propylamino)-3-phenyl propionate]
IC50 (THP-1 TNFα release; Homo sapiens, THP-1): 100 to 1000 nM
IC50 (p38 MAP Kinase a): < 100 nM

SMILES: Cc1cc(C(=O)c2ccc(=O)n(-c3ccc(OCCCN[C@H](C(=O)OC4CCCC4)c4ccccc4)cc3)c2N)ccc1F [Example 26]
IC50 (THP-1 TNFα release; Homo sapiens, THP-1): 100 to 1000 nM
IC50 (p38 MAP Kinase a): < 100 nM

SMILES: CC(C)C[C@H](NC(=O)COc1ccc(-n2c(N)c(C(=O)c3ccc(F)cc3)ccc2=O)cc1)C(=O)OC1CCCC1 [Example 56, Cyclopentyl N-({4-[6-amino-5-(4-fluorobenzoyl)-2-oxopyridin-1(2H)-yl]phenoxy}acetyl)-L-leucinate]
IC50 (THP-1 TNFα release; Homo sapiens, THP-1): > 1000 nM
IC50 (p38 MAP Kinase a): 100 to 1000 nM

SMILES: Nc1c(C(=O)c2ccc(F)cc2)ccc(=O)n1-c1ccc(CN[C@H](C(=O)OC2CCCC2)c2ccccc2)cc1 [Example 1, Cyclopentyl(S)-{4-[6-Amino-5-(4-fluorobenzoyl)-2-oxo-2H-pyridin-1-yl]benzylamino}phenylacetate]
IC50 (THP-1 TNFα release; Homo sapiens, THP-1): > 1000 nM
IC50 (p38 MAP Kinase a): 100 to 1000 nM

SMILES: Nc1c(C(=O)c2ccc(F)cc2)ccc(=O)n1C1CCC(N[C@@H](Cc2ccccc2)C(=O)OC2CCCC2)CC1 (single isomer, unassigned) [Example 35]
IC50 (THP-1 TNFα release): > 1000 nM
IC50 (p38 MAP Kinase a): 100 to 1000 nM

Further lines, results first:

IC50 (THP-1 TNFα release; Homo sapiens, THP-1): 100 to 1000 nM
IC50 (p38 MAP Kinase a): 100 to 1000 nM
IC50 [1]: > 1000 nM
SMILES: Cc1cc(C(=O)c2ccc(=O)n(-c3ccc(OCCCN[C@@H](CC(C)C)C(=O)OC4CCCC4)cc3)c2N)ccc1F [Example 27, Cyclopentyl(S)-2-(3-{4-[6-Amino-5-(4-fluoro-3-methylbenzoyl)-2-oxo-2H-pyridin-1-yl]phenoxy}propylamino)-4-methylpentanoate]

IC50 (THP-1 TNFα release; Homo sapiens, THP-1): < 100 nM
IC50 (p38 MAP Kinase a): < 100 nM
IC50 [1]: 100 to 1000 nM
SMILES: CC(C)C[C@H](NCCCOc1cc(F)c(-n2c(N)c(C(=O)c3ccc(F)cc3F)ccc2=O)c(F)c1)C(=O)OCCN1CCOCC1 [Example 47, 2-Morpholin-4-ylethyl N-(3-{4-[6-amino-5-(2,4-difluorobenzoyl)-2-oxopyridin-1(2H)-yl]-3,5-difluorophenoxy}propyl)-L-leucinate]

IC50 (THP-1 TNFα release; Homo sapiens, THP-1): < 100 nM
IC50 (p38 MAP Kinase a): 100 to 1000 nM
IC50 [1]: 100 to 1000 nM
SMILES: CC(C)C[C@H](NCCCOc1cc(F)c(-n2c(N)c(C(=O)c3ccc(F)cc3F)ccc2=O)c(F)c1)C(=O)OCCN(C)C [Example 46, 2-(Dimethylamino)ethyl N-(3-{4-[6-amino-5-(2,4-difluorobenzoyl)-2-oxopyridin-1(2H)-yl]-3,5-difluorophenoxy}propyl)-L-leucinate]

IC50 (THP-1 TNFα release; Homo sapiens, THP-1): 100 to 1000 nM
IC50 (p38 MAP Kinase a): < 100 nM
IC50 [1]: > 1000 nM
SMILES: CC(C)C[C@H](NCc1cc(F)c(-n2c(N)c(C(=O)c3ccc(F)cc3F)ccc2=O)c(F)c1)C(=O)OC1CCCC1 [Example 11]

IC50 (THP-1 TNFα release; Homo sapiens, THP-1): < 100 nM
IC50 (p38 MAP Kinase a): < 100 nM
IC50 [1]: 100 to 1000 nM
SMILES: Nc1c(C(=O)c2ccc(F)cc2F)ccc(=O)n1-c1c(F)cc(OCCCN[C@H](C(=O)OC2CCCC2)c2ccccc2)cc1F [Example 20, Cyclopentyl(S)-(3-{4-[6-Amino-5-(2,4-difluorobenzoyl)-2-oxo-2H-pyridin-1-yl]-3,5-difluorophenoxy}propylamino)phenyl acetate]

IC50 (THP-1 TNFα release; Homo sapiens, THP-1): < 100 nM
IC50 (p38 MAP Kinase a): 100 to 1000 nM
IC50 [1]: 100 to 1000 nM
SMILES: CC(C)C[C@H](NCCc1ccc(-n2c(N)c(C(=O)c3ccc(F)cc3F)ccc2=O)cc1)C(=O)OC1CCCC1 [Example 59, Cyclopentyl N-[2-(4-{6-amino-5-[(2,4-difluorophenyl)carbonyl]-2-oxopyridin-1(2H)-yl}phenyl)ethyl]-L-leucinate]

IC50 (THP-1 TNFα release; Homo sapiens, THP-1): < 100 nM
IC50 (p38 MAP Kinase a): < 100 nM
IC50 [1]: 100 to 1000 nM
SMILES: NCC[C@H](NCCCOc1cc(F)c(-n2c(N)c(C(=O)c3ccc(F)cc3F)ccc2=O)c(F)c1)C(=O)OC1CCCC1 [Example 52, Cyclopentyl(2S)-4-amino-2-[(3-{4-[6-amino-5-(2,4-difluorobenzoyl)-2-oxopyridin-1(2H)-yl]-3,5-difluorophenoxy}propyl)amino]butanoate]

IC50 (THP-1 TNFα release; Homo sapiens, THP-1): 100 to 1000 nM
IC50 (p38 MAP Kinase a): < 100 nM
IC50 [1]: > 1000 nM
SMILES: CC(C)(C)OC(=O)[C@@H](NCCCOc1cc(F)c(-n2c(N)c(C(=O)c3ccc(F)cc3F)ccc2=O)c(F)c1)C1CCCCC1 [Example 49, tert-Butyl (2S)-[(3-{4-[6-amino-5-(2,4-difluorobenzoyl)-2-oxopyridin-1(2H)-yl]-3,5-difluorophenoxy}propyl)amino](cyclohexyl)acetate]

IC50 (THP-1 TNFα release; Homo sapiens, THP-1): < 100 nM
IC50 (p38 MAP Kinase a): < 100 nM
IC50 [1]: 100 to 1000 nM
SMILES: Nc1c(C(=O)c2ccc(F)cc2F)ccc(=O)n1-c1c(F)cc(OCCCN[C@@H](C(=O)OC2CCCC2)c2ccccc2)cc1F [Example 42, Cyclopentyl (2R)-[(3-{4-[6-amino-5-(2,4-difluorobenzoyl)-2-oxopyridin-1 (2H)-yl]-3,5-difluorophenoxy}propyl)amino](phenyl)acetate]

IC50 (THP-1 TNFα release; Homo sapiens, THP-1): < 100 nM
IC50 (p38 MAP Kinase a): < 100 nM
IC50 [1]: 100 to 1000 nM
SMILES: CC(C)C[C@H](NCCCOc1cc(F)c(-n2c(N)c(C(=O)c3ccc(F)cc3F)ccc2=O)c(F)c1)C(=O)OC1CCCC1 [Example 22, Cyclopentyl(S)-2-(3-{4-[6-Amino-5-(2,4-difluorobenzoyl)-2-oxo-2H-pyridin-1-yl]-3,5-difluorophenoxy}propylamino)-4-methyl pentanoate]

IC50 (THP-1 TNFα release; Homo sapiens, THP-1): < 100 nM
IC50 (p38 MAP Kinase a): < 100 nM
IC50 [1]: > 1000 nM
SMILES: Nc1c(C(=O)c2ccc(F)cc2F)ccc(=O)n1-c1c(F)cc(OCCCN[C@H](C(=O)OC2CCCC2)C2CCCCC2)cc1F [Example 48, Cyclopentyl(2S)-[(3-{4-[6-amino-5-(2,4-difluorobenzoyl)-2-oxopyridin-1(2H)-yl]-3,5-difluorophenoxy}propyl)amino](cyclohexyl)acetate]

IC50 (THP-1 TNFα release; Homo sapiens, THP-1): < 100 nM
IC50 (p38 MAP Kinase a): < 100 nM
IC50 [1]: > 1000 nM
SMILES: Cc1cc(C(=O)c2ccc(=O)n(-c3c(F)cc(OCCCN[C@@H](CC(C)C)C(=O)OC4CCCC4)cc3F)c2N)ccc1F [Example 19, Cyclopentyl(S)-2-(3-{4-[6-Amino-5-(4-fluoro-3-methylbenzoyl)-2-oxo-2H-pyridin-1-yl]-3,5-difluorophenoxy}propylamino)-4-methylpentanoate]

IC50 (THP-1 TNFα release; Homo sapiens, THP-1): < 100 nM
IC50 (p38 MAP Kinase a): < 100 nM
IC50 [1]: > 1000 nM
SMILES: CC(C)C[C@H](NCCCOc1cc(F)c(-n2c(N)c(C(=O)c3ccc(F)cc3)ccc2=O)c(F)c1)C(=O)OC1CCCC1 [Example 15]
